Like-named read-outs stand apart in the source and are kept apart here.

The test system of this test is 293T cells. Put plainly: CCK8 cell activity, median lethal dose IC50. In kind it is cell-based, Human. As to the method: After incubating 293T cells with different concentrations of the metal-chelated polyphenol complex ([…]), cationic lipid (DOTAP, 0, 0.1, 0.3, 0.9, 2.7, 8.1, 24.3, 72.9, 218.7 μM) and ionizable lipid (ALC0315, 0, 0.1, 0.3, 0.9, 2.7, 8.1, 24.3, 72.9, 218.7 μM) for 48 hours, cell activity was detected using a CCK8 activity detection kit, and the median lethal dose IC50 of the metal-chelated polyphenol complex, cationic lipid (DOTAP) and ionizable lipid (ALC0315) for 293T cells was calculated respectively.
• Cell culture: cells were cultivated with DMEM culture medium containing 10% FBS and 1% Penicillin-Streptomycin Solution, and wait until the cell density reached 80%-90% of the culture bottle; • The remaining culture medium in the culture bottle was washed with PBS, the culture bottle was added with trypsin, and quickly transferred to a 37° C. incubator containing 5% CO2. During close observation, when the cells become slightly round, culture medium was added to stop digestion. The mixture was transferred to a centrifuge tube, centrifuged at 1500 RPM for 5 minutes, and the cells were resuspended with fresh culture medium; • Counting: the cell suspension was diluted to 10,0000 cells per 1 mL according to the purpose, 100 μL per well in a 96-well plate, and at least 5 replicates per group. Drug was added after 24 h of incubation at 37° C., 5% CO2; • After drug incubation for 48 h, 10% CCK8 was added, incubated for 1-3 h, and absorbance was measured by an ELISA reader at 450 nm;
[formula] • IC50 calculation method: with survival rate as the ordinate and drug concentration as the abscissa, IC50 was calculated by Graphpad using [Inhibitor] vs. normalized response-Variable slope analysis method.
The calculation method of IC50 is as described in Example 10.

The IC50 is the midpoint of a concentration-inhibition curve. For `CCCCCCCCC(CCCCCC)C(=O)OCCCCCCN(CCCCO)CCCCCCOC(=O)C(CCCCCC)CCCCCCCC` (stereo not shown) [ALC0315], the IC50 stood at 115 µM (Homo sapiens, HEK-293T, 48 h) and 115 µM (Homo sapiens, HEK-293T, Table 4-3, median lethal dose for 293T cells, CCK8, read-out: IC50).

Take `CCCCCCCC/C=C\CCCCCCCC(=O)OCC(C[N+](C)(C)C)OC(=O)CCCCCCC/C=C\CCCCCCCC` (stereo not shown) [DOTAP, N-(2,3-dioleoyloxy) propyl)-N,N, N-trimethylammonium chloride]: the IC50 runs as follows: (Table 2-2, median lethal dose for 293T cells, 48 hours, CCK8, read-out: IC50) 25.7 µM; (Table 4-3, median lethal dose for 293T cells, CCK8, read-out: IC50) 25.7 µM.
